Test results from the supplement of paper PMC10883282.
± gives the standard deviation of the averaged measurements.

Test system: HS729
Assay: relative viability vs DMSO control (72 h) (fraction); higher = more viable cells
Summary of the method: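 Sarcoma cell lines were seeded in 384-well plates at densities set to reach 80–90% confluence. After 24 h, 2.5 µl of serially diluted compound was added (source plates 10 mM to 0.0002 mM), and plates were held 72 h at 37 °C, 5% CO2, with 0.1% DMSO vehicle and a 5 µM positive control. Relative viability came from ATPLite readings as percent growth, averaged over up to triplicate wells. Data were rescaled so full viability equals 1 and none equals 0.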

Row | SMILES | relative viability (0.00017 µM) | relative viability (0.00051 µM) | relative viability (0.00152 µM) | relative viability (0.00457 µM) | relative viability (0.01372 µM) | relative viability (0.04115 µM) | relative viability (0.1235 µM) | relative viability (0.3704 µM) | relative viability (1.111 µM) | relative viability (3.333 µM) | relative viability (10 µM)
1 | COc1cc2nccc(Oc3ccc(NC(=O)Nc4cc(C)on4)c(Cl)c3)c2cc1OC [Tivozanib] | 0.898 ± 0.058 | 0.883 ± 0.018 | 0.9572 ± 0.0089 | 0.923 ± 0.046 | 0.921 ± 0.052 | 0.882 ± 0.017 | 0.869 ± 0.043 | 0.891 ± 0.044 | 0.894 ± 0.05 | 0.817 ± 0.0084 | 0.722 ± 0.02
2 | C[C@]1(O)C[C@@H](c2nc(-c3ccc4ccc(-c5ccccc5)nc4c3)c3c(N)nccn32)C1 [Linsitinib] | 1.04 ± 0.051 | 1.02 ± 0.073 | 0.996 ± 0.053 | 0.969 ± 0.026 | 0.921 ± 0.033 | 0.842 ± 0.012 | 0.757 ± 0.047 | 0.655 ± 0.07 | 0.588 ± 0.047 | 0.577 ± 0.055 | 0.465 ± 0.049
3 | C=CC(=O)Nc1cccc(Oc2nc(Nc3ccc(N4CCN(C)CC4)cc3)nc3ccsc23)c1 [Olmutinib] | 1.02 ± 0.095 | 1.03 ± 0.1 | 0.996 ± 0.094 | 0.988 ± 0.07 | 0.922 ± 0.05 | 0.968 ± 0.11 | 0.958 ± 0.093 | 0.904 ± 0.097 | 0.925 ± 0.079 | 0.887 ± 0.051 | 0.713 ± 0.059
4 | O=C(Nc1cnn2ccc(N3CCC[C@@H]3c3cc(F)ccc3F)nc12)N1CC[C@H](O)C1 [Larotrectinib] | 1.07 ± 0.041 | 0.958 ± 0.062 | 0.895 ± 0.033 | 0.874 ± 0.029 | 0.939 ± 0.019 | 0.887 ± 0.074 | 0.936 ± 0.021 | 0.905 ± 0.095 | 0.85 ± 0.013 | 0.84 ± 0.094 | 0.849 ± 0.02
